For 27 molecules, IC50 results are on record in patent US10047083B2, “Dihydropyrimidinoisoquinolinones and pharmaceutical compositions thereof for the treatment of inflammatory disorders” (GALAPAGOS NV, priority 2011, dated 2018).

In this experiment the target is T1, GPR84 (Homo sapiens, UniProt Q9NQS5).
T1 construct: expressed in transfected cells; membranes used
T1 sequence (Q9NQS5 whole entry): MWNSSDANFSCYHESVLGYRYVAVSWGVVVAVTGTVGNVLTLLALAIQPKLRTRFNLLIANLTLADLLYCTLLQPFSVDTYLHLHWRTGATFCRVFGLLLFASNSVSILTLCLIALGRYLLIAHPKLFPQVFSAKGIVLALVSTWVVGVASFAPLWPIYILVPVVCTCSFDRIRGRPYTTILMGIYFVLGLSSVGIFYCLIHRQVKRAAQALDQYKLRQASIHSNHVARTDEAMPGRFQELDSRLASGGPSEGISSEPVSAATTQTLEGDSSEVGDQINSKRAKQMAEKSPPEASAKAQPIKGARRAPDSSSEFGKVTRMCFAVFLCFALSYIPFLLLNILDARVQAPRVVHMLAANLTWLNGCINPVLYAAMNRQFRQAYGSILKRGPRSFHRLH
The experiment can be described thus: GTPγS binding assay (GPR84). The class given is biochemical. Conditions: membranes from stable cell line over expressing GPR84; 3,3′ di indolylmethane at EC80. On the procedure: 1.1. Cell Based Assay: GTp-γS Binding Assay.
The following assay can be used for determination of GPR84 activation.
The assay is performed in a 96 well plate where the following reagents are added. […] In a last step, 30 μL of a mixture consisting of membranes-GTPγS-SpA beads is added [mixture consists of 20 μg/well membranes derived from stable cell line over expressing GPR84 (membranes are pre-incubated with 0.1 μM GDP for 15 min at 4° C.), 0.1 nM [^35S]GTPγS (Perkin Elmer, NEG030) and 0.5 mg/well PVT-WGA SpA beads (Perkin Elmer, RPNQ0001)]. All components are diluted in assay buffer containing 20 mM HEPES pH 7.4; 5 mM MgCl2; 250 mM NaCl; 0.05% BSA; 75 ug/mL saponin. Reactions are incubated for 90 min at room temperature followed by centrifugation at 2000 rpm during 15 min. Plates are read on a Topcount reader (Perkin Elmer) immediately after centrifugation (readout time, 1 min/well).
As for `CCOCCOc1ccc2c(c1)CCn1c-2cc(OC[C@@H]2COCCO2)nc1=O` [Compound 130, 2-((S)-1-[1,4]dioxan-2-ylmethoxy)-9-(2-ethoxy-ethoxy)-6,7-dihydro-pyrimido[6,1-a]isoquinolin-4-one], the IC50 is 101 to 500 nM.
For `O=c1nc(OC[C@@H]2COCCO2)cc2n1CCc1cc(OCC3CC3)ccc1-2` [Compound 131, 9-cyclopropylmethoxy-2-((S)-1-[1,4]dioxan-2-ylmethoxy)-6,7-dihydro-pyrimido[6,1-a]isoquinolin-4-one] the value was 0.01 to 100 nM; for `O=c1nc(OC[C@@H]2COCCO2)cc2n1CCc1cc(OCCF)ccc1-2` [Compound 132, 2-((S)-1-[1,4]dioxan-2-ylmethoxy)-9-(2-fluoro-ethoxy)-6,7-dihydro-pyrimido[6,1-a]isoquinolin-4-one], 501 to 1000 nM.
Regarding `CCOCCOCC#Cc1ccc2c(c1)CCn1c-2cc(OC[C@@H]2COCCO2)nc1=O` [Compound 134, 2-((S)-1-[1,4]dioxan-2-ylmethoxy)-9-[3-(2-ethoxy-ethoxy)-prop-1-ynyl]-6,7-dihydro-pyrimido[6,1-a]isoquinolin-4-one], the IC50 lay within 101 to 500 nM.
In turn, `O=c1nc(OC[C@@H]2COCCO2)cc2n1CCc1cc(C#CCOCCF)ccc1-2` [Compound 135, 2-((S)-1-[1,4]dioxan-2-ylmethoxy)-9-[3-(2-fluoro-ethoxy)-prop-1-ynyl]-6,7-dihydro-pyrimido[6,1-a]isoquinolin-4-one] yielded an IC50 of 101 to 500 nM.
In turn, `CC(C)(C)COCc1ccc2c(c1)CCn1c-2cc(OC[C@@H]2COCCO2)nc1=O` [Compound 136, 9-(2,2-dimethyl-propoxymethyl)-2-((S)-1-[1,4]dioxan-2-ylmethoxy)-6,7-dihydro-pyrimido[6,1-a]isoquinolin-4-one] yielded an IC50 of 0.01 to 100 nM.
For `O=c1nc(OC[C@@H]2COCCO2)cc2n1CCc1cc(COC3CCCCC3)ccc1-2` [Compound 137, 9-cyclohexyloxymethyl-2-((S)-1-[1,4]dioxan-2-ylmethoxy)-6,7-dihydro-pyrimido[6,1-a]isoquinolin-4-one] the value was 0.01 to 100 nM; for `O=c1nc(OC[C@@H]2COCCO2)cc2n1CCc1cc(COCC3CC3)ccc1-2` [Compound 138, 9-cyclopropylmethoxymethyl-2-((S)-1-[1,4]dioxan-2-ylmethoxy)-6,7-dihydro-pyrimido[6,1-a]isoquinolin-4-one], 0.01 to 100 nM.
For `CC(C)(C)CCCOc1ccc2c(c1)CCn1c-2cc(OC[C@@H]2COCCO2)nc1=O` [Compound 141, 9-(4,4-dimethyl-pentyloxy)-2-((S)-1-[1,4]dioxan-2-ylmethoxy)-6,7-dihydro-pyrimido[6,1-a]isoquinolin-4-one] the value was 101 to 500 nM.
`COC(CCc1ccc2c(c1)CCn1c-2cc(OC[C@@H]2COCCO2)nc1=O)C(C)C` (stereo partly drawn) [Compound 142, 2-((S)-1-[1,4]dioxan-2-ylmethoxy)-9-(3-methoxy-4-methyl-pentyl)-6,7-dihydro-pyrimido[6,1-a]isoquinolin-4-one] had an IC50 of 0.01 to 100 nM.
With `O=c1nc(OC[C@@H]2COCCO2)cc2n1CCc1cc(NC3CCCCC3)ccc1-2` [Compound 145, 9-cyclohexylamino-2-((S)-1-[1,4]dioxan-2-ylmethoxy)-6,7-dihydro-pyrimido[6,1-a]isoquinolin-4-one], the IC50 was in the range of 101 to 500 nM.
As for `CC(C)(C)C(O)CCc1ccc2c(c1)CCn1c-2cc(OC[C@@H]2COCCO2)nc1=O` (stereo partly drawn) [Compound 146, 2-((S)-1-[1,4]dioxan-2-ylmethoxy)-9-(3-hydroxy-4,4-dimethyl-pentyl)-6,7-dihydro-pyrimido[6,1-a]isoquinolin-4-one], the IC50 is 0.01 to 100 nM.
`COC(C)CCc1ccc2c(c1)CCn1c-2cc(OC[C@@H]2COCCO2)nc1=O` (stereo partly drawn) [Compound 148, 2-((S)-1-[1,4]dioxan-2-ylmethoxy)-9-(3-methoxy-butyl)-6,7-dihydro-pyrimido[6,1-a]isoquinolin-4-one] registered an IC50 of 0.01 to 100 nM.
`O=c1nc(OC[C@@H]2COCCO2)cc2n1CCc1cc(CCCCO)ccc1-2` [Compound 151, 2-((S)-1-[1,4]dioxan-2-ylmethoxy)-9-(4-hydroxy-butyl)-6,7-dihydro-pyrimido[6,1-a]isoquinolin-4-one] gave an IC50 of 101 to 500 nM.
On to `CN(c1ccc2c(c1)CCn1c-2cc(OC[C@@H]2COCCO2)nc1=O)C1CCCCC1` [Compound 152, 9-(cyclohexyl-methyl-amino)-2-((S)-1-[1,4]dioxan-2-ylmethoxy)-6,7-dihydro-pyrimido[6,1-a]isoquinolin-4-one], for which the IC50 was 501 to 1000 nM.
`O=c1nc(OC[C@@H]2COCCO2)cc2n1CCc1cc(NCC3CCCCC3)ccc1-2` [Compound 153, 9-(cyclohexylmethyl-amino)-2-((S)-1-[1,4]dioxan-2-ylmethoxy)-6,7-dihydro-pyrimido[6,1-a]isoquinolin-4-one]: the IC50 lay within 101 to 500 nM.
To `O=c1nc(OC[C@@H]2COCCO2)cc2n1CCc1cc(NCC3CCOCC3)ccc1-2` [Compound 154, 2-((S)-1-[1,4]dioxan-2-ylmethoxy)-9-[(tetrahydro-pyran-4-ylmethyl)-amino]-6,7-dihydro-pyrimido[6,1-a]isoquinolin-4-one] belongs 501 to 1000 nM; to `CCC(O)(CC)CCc1ccc2c(c1)CCn1c-2cc(OC[C@@H]2COCCO2)nc1=O` [Compound 155, 2-((S)-1-[1,4]dioxan-2-ylmethoxy)-9-(3-ethyl-3-hydroxy-pentyl)-6,7-dihydro-pyrimido[6,1-a]isoquinolin-4-one], 0.01 to 100 nM.
`CC(C)(O)CCc1ccc2c(c1)CCn1c-2cc(OC[C@@H]2COCCO2)nc1=O` [Compound 156, 2-((S)-1-[1,4]dioxan-2-ylmethoxy)-9-(3-hydroxy-3-methyl-butyl)-6,7-dihydro-pyrimido[6,1-a]isoquinolin-4-one]: the half-inhibitory concentration (IC50) was 101 to 500 nM.
For `CCC(O)CCc1ccc2c(c1)CCn1c-2cc(OC[C@@H]2COCCO2)nc1=O` (stereo partly drawn) [Compound 157, 2-((S)-1-[1,4]dioxan-2-ylmethoxy)-9-(3-hydroxy-pentyl)-6,7-dihydro-pyrimido[6,1-a]isoquinolin-4-one] the value was 101 to 500 nM; for `O=c1nc(OC[C@@H]2COCCO2)cc2n1CCc1cc(OCC3COC3)ccc1-2` [Compound 163, 2-((S)-1-[1,4]dioxan-2-ylmethoxy)-9-(oxetan-3-ylmethoxy)-6,7-dihydro-pyrimido[6,1-a]isoquinolin-4-one], 0.01 to 100 nM.
In the case of `O=c1nc(OC[C@H]2COCCO2)cc2n1CCc1cc(OCCCC3CC3)ccc1-2` [Compound 164, 9-(3-cyclopropyl-propoxy)-2-((R)-1-[1,4]dioxan-2-ylmethoxy)-6,7-dihydropyrimido[6,1-a]isoquinolin-4-one], the IC50 lay within 0.01 to 100 nM.
In turn, `COCCCc1ccc2c(c1)CCn1c-2cc(OC[C@@H]2COCCO2)nc1=O` [Compound 165, 2-((S)-1-[1,4]dioxan-2-ylmethoxy)-9-(3-methoxy-propyl)-6,7-dihydro-pyrimido[6,1-a]isoquinolin-4-one] yielded an IC50 of 0.01 to 100 nM.
In turn, `O=c1nc(OC[C@@H]2COCCO2)cc2n1CCc1cc(CCC3(O)CCCC3)ccc1-2` [Compound 166, 2-((S)-1-[1,4]dioxan-2-ylmethoxy)-9-[2-(1-hydroxy-cyclopentyl)-ethyl]-6,7-dihydro-pyrimido[6,1-a]isoquinolin-4-one] gave an IC50 of 0.01 to 100 nM.
In turn, `O=c1nc(OC[C@H]2COCCO2)cc2n1CCc1cc(C#CC3(O)CCOCC3)ccc1-2` [Compound 167, 2-((R)-1-[1,4]Dioxan-2-ylmethoxy)-9-(4-hydroxy-tetrahydro-pyran-4-ylethynyl)-6,7-dihydro-pyrimido[6,1-a]isoquinolin-4-one] registered an IC50 of 501 to 1000 nM.
`CCCOCCOc1ccc2c(c1)CCn1c-2cc(OC[C@H]2COCCO2)nc1=O` [Compound 172, 2-((R)-1-[1,4]Dioxan-2-ylmethoxy)-9-(2-propoxy-ethoxy)-6,7-dihydro-pyrimido[6,1-a]isoquinolin-4-one] yielded an IC50 of 101 to 500 nM.
`CC(C)OCCOc1ccc2c(c1)CCn1c-2cc(OC[C@H]2COCCO2)nc1=O` [Compound 173, 2-((R)-1-[1,4]Dioxan-2-ylmethoxy)-9-(2-isopropoxy-ethoxy)-6,7-dihydro-pyrimido[6,1-a]isoquinolin-4-one] registered an IC50 of 501 to 1000 nM.
